Laboratory results from patent US20170305861A1, “HETEROARYL COMPOUNDS COMPRISING NITROGEN AND USE THEREOF” (ImmunoMet Therapeutics, Inc, priority 2016, published 2017).

tested on: SK-MEL-28 cells; experiment: Inhibitory effect of cancer cell proliferation, MTT; format: cell-based; conditions: Homo sapiens, SK-MEL-28; 0.75 mM glucose, 72 hours, MTT; read-out: SK-MEL-28 0.75 mM glucose Cell viability (IC50 μM)
Description: The compounds prepared in the above Examples were evaluated for the inhibitory effect of cancer cell proliferation according to the method described in the following Test Example.
SK-MEL-28 cells derived from human melanoma were used, and the concentration (cell growth inhibitory concentration, IC50) at which cell growth was inhibited to 50% was measured using MTT reagent (3-(4,5-dimethylthiazole-2-yl)-2,5-[…] bromide) to confirm the inhibitory effect of cancer cell proliferation of the drugs synthesized in Examples 1 to 84.
First, SK-MEL-28 cells were cultured in 96-well plates at a cell number of about 1,250 in RPMI-1640 medium containing 11.1 mM glucose and 10% calf blood serum or 0.75 mM glucose and 10% calf blood serum, and were cultured for 16 hours. […] After treatment of the compound, MTT was added to the culture medium to confirm living cells and further cultured for 2 hours. The resulting formazane crystal was dissolved using dimethyl sulfoxide, and the absorbance of the solution was measured at 555 nm. After culturing for 72 hours, the number of viable cells in the well plate treated with the compounds synthesized in the Examples relative to the number of cells cultured in the well plate without treatment of the compounds was expressed as cell viability (%) according to each treatment concentration. By using this, a cell viability curve graph was prepared, and the inhibitory effect of cancer cell proliferation was confirmed by calculating the concentration of the compound whose growth was inhibited to 50% (IC50).

Question: Which IC50 does the source give for `Nc1cc[n+](CCCc2ccccc2)c(F)c1` [Example 24, 4-Amino-2-fluoro-1-(3-phenylpropyl)pyridinium chloride] here?
Answer: 4.4 µM

Question: For `Nc1cc[n+](CC(=O)c2ccc(OC(F)(F)F)cc2)cc1` [Example 25, 4-Amino-1-(2-oxo-2-(4-(trifluoromethoxy)phenyl)ethyl)pyridinium bromide], which IC50 is on record?
Answer: 15.5 µM

Question: `Nc1cc[n+](CC(=O)c2ccccc2)cc1` [Example 26, 4-Amino-1-(2-oxo-2-phenylethyl)pyridinium bromide] was tested. Which IC50 did it give?
Answer: 102 µM

Question: For `Nc1cc[n+](CCC2CCCCC2)c(F)c1` [Example 28, 4-Amino-1-(2-cyclohexylethyl)-2-fluoropyridinium bromide], which IC50 is on record?
Answer: 0.7 µM

Question: `Nc1cc[n+](Cc2ccccc2)c(N)c1` [Example 29, 2,4-Diamino-1-benzylpyridinium chloride] was tested. Which IC50 did it give?
Answer: 38.5 µM

Question: With `Nc1cc[n+](Cc2ccccc2)c(Cl)c1` [Example 30, 4-Amino-1-benzyl-2-chloropyridinium chloride] as the compound, how does the IC50 read?
Answer: 8.2 µM

Question: For `Nc1cc[n+](CC2CC2)cc1` [Example 31, 4-Amino-1-(cyclopropylmethyl)pyridinium chloride], which IC50 is on record?
Answer: 56.2 µM

Question: How did the IC50 turn out when `Nc1cc[n+](CCc2ccccc2)c(Cl)c1` [Example 32, 4-Amino-2-chloro-1-phenethylpyridinium chloride] was run?
Answer: 8.1 µM

Question: How did the IC50 turn out when `CNc1cc[n+](CCc2ccccc2)cc1` [Example 33, 4-(Methylamino)-1-phenethylpyridinium chloride] was run?
Answer: 7.7 µM

Question: Which IC50 does the source give for `CNc1cc[n+](Cc2ccccc2)cc1` [Example 34, 1-Benzyl-4-(methylamino)pyridinium chloride] here?
Answer: 7.9 µM

Question: How did the IC50 turn out when `Nc1cc[n+](Cc2ccc(Cl)c(Cl)c2)c(F)c1` [Example 35, 4-Amino-1-(3,4-dichlorobenzyl)-2-fluoropyridinium chloride] was run?
Answer: 5 µM

Question: Which IC50 does the source give for `Nc1cc[n+](Cc2ccc(Cl)c(Cl)c2)cc1` [Example 36, 4-Amino-1-(3,4-dichlorobenzyl)pyridinium chloride] here?
Answer: 2.8 µM

Question: Which IC50 does the source give for `CNc1cc[n+](Cc2ccc(Cl)c(Cl)c2)cc1` [Example 37, 1-(3,4-Dichlorobenzyl)-4-(methylamino)pyridinium chloride] here?
Answer: 1.5 µM

Question: With `FC1(F)CCN(c2cc[n+](Cc3ccccc3)cc2)CC1` [Example 65, 1-benzyl-4-(4,4-difluoropiperidin-1-yl)pyridinium chloride] as the compound, how does the IC50 read?
Answer: 28.6 µM

Question: For `c1ccc(C[n+]2ccc(NC3COC3)cc2)cc1` [Example 67, 1-Benzyl-4-(oxetan-3-ylamino)pyridinium chloride], which IC50 is on record?
Answer: 131 µM

Question: `CC(C)(C)Nc1cc[n+](Cc2ccccc2)cc1` [Example 69, 1-benzyl-4-(tert-butylamino)pyridinium chloride] was tested. Which IC50 did it give?
Answer: 14.6 µM

Question: `Nc1cc[n+](CC2CC2)cn1` [Example 73, 4-Amino-1-(cyclopropylmethyl)pyrimidin-1-ium chloride] was tested. Which IC50 did it give?
Answer: 169 µM

same assay, conditions: Homo sapiens, SK-MEL-28; 11.1 mM glucose, 72 hours, MTT; read-out: SK-MEL-28 11.1 mM glucose Cell viability (IC50 μM)

Question: How did the IC50 turn out when `Nc1cc[n+](CCCc2ccccc2)c(F)c1` [Example 24, 4-Amino-2-fluoro-1-(3-phenylpropyl)pyridinium chloride] was run?
Answer: 16.8 µM

Question: Which IC50 does the source give for `Nc1cc[n+](CC(=O)c2ccc(OC(F)(F)F)cc2)cc1` [Example 25, 4-Amino-1-(2-oxo-2-(4-(trifluoromethoxy)phenyl)ethyl)pyridinium bromide] here?
Answer: 40.6 µM

Question: With `Nc1cc[n+](CC(=O)c2ccccc2)cc1` [Example 26, 4-Amino-1-(2-oxo-2-phenylethyl)pyridinium bromide] as the compound, how does the IC50 read?
Answer: 194 µM

Question: For `Nc1cc[n+](CCC2CCCCC2)c(F)c1` [Example 28, 4-Amino-1-(2-cyclohexylethyl)-2-fluoropyridinium bromide], which IC50 is on record?
Answer: 3.8 µM

Question: With `Nc1cc[n+](Cc2ccccc2)c(N)c1` [Example 29, 2,4-Diamino-1-benzylpyridinium chloride] as the compound, how does the IC50 read?
Answer: 162 µM

Question: For `Nc1cc[n+](Cc2ccccc2)c(Cl)c1` [Example 30, 4-Amino-1-benzyl-2-chloropyridinium chloride], which IC50 is on record?
Answer: 23 µM

Question: For `Nc1cc[n+](CC2CC2)cc1` [Example 31, 4-Amino-1-(cyclopropylmethyl)pyridinium chloride], which IC50 is on record?
Answer: 418 µM

Question: For `Nc1cc[n+](CCc2ccccc2)c(Cl)c1` [Example 32, 4-Amino-2-chloro-1-phenethylpyridinium chloride], which IC50 is on record?
Answer: 38.8 µM

Question: For `CNc1cc[n+](CCc2ccccc2)cc1` [Example 33, 4-(Methylamino)-1-phenethylpyridinium chloride], which IC50 is on record?
Answer: 102 µM

Question: With `CNc1cc[n+](Cc2ccccc2)cc1` [Example 34, 1-Benzyl-4-(methylamino)pyridinium chloride] as the compound, how does the IC50 read?
Answer: 101 µM

Question: For `Nc1cc[n+](Cc2ccc(Cl)c(Cl)c2)c(F)c1` [Example 35, 4-Amino-1-(3,4-dichlorobenzyl)-2-fluoropyridinium chloride], which IC50 is on record?
Answer: 7.5 µM

Question: For `Nc1cc[n+](Cc2ccc(Cl)c(Cl)c2)cc1` [Example 36, 4-Amino-1-(3,4-dichlorobenzyl)pyridinium chloride], which IC50 is on record?
Answer: 13.1 µM

Question: `CNc1cc[n+](Cc2ccc(Cl)c(Cl)c2)cc1` [Example 37, 1-(3,4-Dichlorobenzyl)-4-(methylamino)pyridinium chloride] was tested. Which IC50 did it give?
Answer: 10.8 µM

Question: Which IC50 does the source give for `FC1(F)CCN(c2cc[n+](Cc3ccccc3)cc2)CC1` [Example 65, 1-benzyl-4-(4,4-difluoropiperidin-1-yl)pyridinium chloride] here?
Answer: 215 µM

Question: Which IC50 does the source give for `c1ccc(C[n+]2ccc(NC3COC3)cc2)cc1` [Example 67, 1-Benzyl-4-(oxetan-3-ylamino)pyridinium chloride] here?
Answer: 545 µM

Question: `CC(C)(C)Nc1cc[n+](Cc2ccccc2)cc1` [Example 69, 1-benzyl-4-(tert-butylamino)pyridinium chloride] was tested. Which IC50 did it give?
Answer: 132 µM

Question: With `Nc1cc[n+](CC2CC2)cn1` [Example 73, 4-Amino-1-(cyclopropylmethyl)pyrimidin-1-ium chloride] as the compound, how does the IC50 read?
Answer: 358 µM

tested on: A549 cell lines (lung cancer cell lines); experiment: Oxygen Consumption Rate (OCR) of cells, corrected for cell viability (Cyquant); format: cell-based; conditions: Homo sapiens; A549 cells, 24 h drug treatment, OCR value reflecting cell viability; read-out: OCR IC50
Description: The compounds synthesized by the methods disclosed in the Examples of the present invention have been measured on oxygen consumption rate and extracellular oxidation by the methods disclosed in the Test Examples below.
3×10^3 cells from A549 cell lines (purchased from ATCC-American Type Culture Collection), which are lung cancer cell lines, were placed on XF96 cell culture plates using RPMI1640 medium, and cultured at 37° C. in a 5% CO2 condition for 16 hours or more for attachment.
After 16 hours, the cells were treated with the drug at six different concentrations between 0 μM and 20 μM. After 24 hours, the existing medium was removed, and XF assay medium (15 mM D-Glucose, 15 mM sodium pyruvate, 4 mM L-Glutamine, pH 7.4) was added. The cells were retreated with the drug, and additionally cultured in Prep station at 37° C. in a non-CO2 condition for 1 hour. During the one-hour culture in the Prep station, a sensor cartridge was placed and calibrated for 20 minutes, and a plate with cells was placed to analyze the OCR. After the analysis was completed, XF96 plate was measured for cell viability using Cyquant assay, which measures the amount of intracellular DNA, in the following method. XF assay medium and the drug were removed, and the cells were placed in a cryogenic refrigerator (−80° C.) for at least 4 hours to be frozen. After the plate was made to be at room temperature, a solution where a lysis buffer and fluorescent GR dye were mixed was placed by 200 μL per well. After 20-minute reaction at room temperature, […] was measured between […] to calculate cell viability. A measured value of a well untreated with the drug was converted to 100% by reflecting cell viability to the OCR value. Concentration of a drug which inhibits the OCR value reflecting cell viability by 50% was calculated.

Question: With `COc1ccc2cc3[n+](cc2c1OC)CCc1cc2c(cc1-3)OCO2` [Berberine, reference compound] as the compound, how does the IC50 read?
Answer: 4.6 µM

Question: `Nc1cc[n+](CCCc2ccccc2)c(F)c1` [Example 24, 4-Amino-2-fluoro-1-(3-phenylpropyl)pyridinium chloride] was tested. Which IC50 did it give?
Answer: 0.8 µM

Question: `Nc1cc[n+](CC(=O)c2ccc(OC(F)(F)F)cc2)cc1` [Example 25, 4-Amino-1-(2-oxo-2-(4-(trifluoromethoxy)phenyl)ethyl)pyridinium bromide] was tested. Which IC50 did it give?
Answer: 1.6 µM

Question: For `Nc1cc[n+](CC(=O)c2ccccc2)cc1` [Example 26, 4-Amino-1-(2-oxo-2-phenylethyl)pyridinium bromide], which IC50 is on record?
Answer: 2.4 µM

Question: How did the IC50 turn out when `Nc1cc[n+](CCC2CCCCC2)c(F)c1` [Example 28, 4-Amino-1-(2-cyclohexylethyl)-2-fluoropyridinium bromide] was run?
Answer: 0.4 µM

Question: Which IC50 does the source give for `Nc1cc[n+](Cc2ccccc2)c(N)c1` [Example 29, 2,4-Diamino-1-benzylpyridinium chloride] here?
Answer: 5.3 µM

Question: With `Nc1cc[n+](Cc2ccccc2)c(Cl)c1` [Example 30, 4-Amino-1-benzyl-2-chloropyridinium chloride] as the compound, how does the IC50 read?
Answer: 0.9 µM

Question: With `Nc1cc[n+](CC2CC2)cc1` [Example 31, 4-Amino-1-(cyclopropylmethyl)pyridinium chloride] as the compound, how does the IC50 read?
Answer: 4.3 µM

Question: Which IC50 does the source give for `Nc1cc[n+](CCc2ccccc2)c(Cl)c1` [Example 32, 4-Amino-2-chloro-1-phenethylpyridinium chloride] here?
Answer: 0.3 µM

Question: For `CNc1cc[n+](CCc2ccccc2)cc1` [Example 33, 4-(Methylamino)-1-phenethylpyridinium chloride], which IC50 is on record?
Answer: 1.5 µM

Question: Which IC50 does the source give for `CNc1cc[n+](Cc2ccccc2)cc1` [Example 34, 1-Benzyl-4-(methylamino)pyridinium chloride] here?
Answer: 1.1 µM

Question: With `Nc1cc[n+](Cc2ccc(Cl)c(Cl)c2)c(F)c1` [Example 35, 4-Amino-1-(3,4-dichlorobenzyl)-2-fluoropyridinium chloride] as the compound, how does the IC50 read?
Answer: 0.5 µM

Question: `Nc1cc[n+](Cc2ccc(Cl)c(Cl)c2)cc1` [Example 36, 4-Amino-1-(3,4-dichlorobenzyl)pyridinium chloride] was tested. Which IC50 did it give?
Answer: 0.7 µM

Question: `CNc1cc[n+](Cc2ccc(Cl)c(Cl)c2)cc1` [Example 37, 1-(3,4-Dichlorobenzyl)-4-(methylamino)pyridinium chloride] was tested. Which IC50 did it give?
Answer: 1.1 µM
